Measurements: patent US10793568B2, “Hormone receptor modulators for treating metabolic conditions and disorders” (ARDELYX, INC., priority 2016, dated 2020)

Experiments:
[1] = molecular target: human Farnesoid X receptor ligand-binding domain/Gal4 DNA binding domain chimera (Homo sapiens (Human), UniProt Q96RI1); test: Cell-based assay of FXR activation (FXR-UAS-bla HEK 293T beta-lactamase reporter); conditions: cellular FXR beta-lactamase reporter assay
Protocol: FXR activation was measured using a cell line and procedure obtained from Life Technologies (Cat # K1691). FXR-UAS-bla HEK 293T cells contain a human Farnesoid X receptor ligand-binding domain/Gal4 DNA binding domain chimera stably integrated into the CellSensor® UAS-bla HEK 293T cell line. The CellSensor® UAS-bla HEK 293T contains a beta-lactamase reporter gene under control of a UAS response element stably integrated into HEK 293T cells. Activation of FXR by bound ligands results in transcriptional activation of the beta-lactamase reporter gene, which is detected via assay of beta-lactamase activity.
Cells are harvested and diluted into assay medium containing phenol red-free DMEM supplemented with 2% Charcoal-stripped FBS, pyruvate, non-essential amino acids. Cells are then transferred to a 384 well assay plate. Test compounds are dissolved in DMSO and a 3-fold serial dilution series is generated, then further diluted into assay medium. Compounds in assay medium are added to cells in the 384 well plate and allowed to incubate 16 h at 37 C in the presence of 5% CO2.
A FRET-based […] is loaded into cells as its acetomethoxy ester. Intracellular esterases liberate free CCF4, a cephalosporin core linking 7-hydroxycoumarin to fluorescein. In the presence of beta-lactamase activity produced in the presence of FXR agonists, cleavage of CCF4 spatially separates the two dyes and disrupts FRET, so that exciting the coumarin at 409 nm now produces a blue fluorescence signal at 447 nm. The change in FRET signal is plotted against the test compound concentration and fit to a 3-parameter logistical equation. The concentration required to produce 50% activation is expressed as pEC50 (−log EC50), and the extent of activation is expressed relative to GW4064 as % activation.

[2] = molecular target: ligand binding domain of human FXR (Homo sapiens (Human), UniProt Q96RI1); test: FXR ligand binding assay (LanthaScreen TR-FRET, SRC2-2 peptide recruitment); conditions: for pEC50: -log EC50, concentration required to produce 50% activation; for Emax: extent of activation relative to GW4064, read-out: % Efficacy
Chain of ligand binding domain of human FXR (Q96RI1 262-486): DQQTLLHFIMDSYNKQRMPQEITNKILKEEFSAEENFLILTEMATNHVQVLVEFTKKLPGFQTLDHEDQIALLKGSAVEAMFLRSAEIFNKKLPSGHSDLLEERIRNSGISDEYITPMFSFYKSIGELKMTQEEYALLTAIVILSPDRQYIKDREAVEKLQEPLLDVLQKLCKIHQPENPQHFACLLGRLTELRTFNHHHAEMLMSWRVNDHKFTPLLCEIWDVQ
Protocol: The affinity of FXR ligands for the ligand binding domain of FXR was determined using a commercially available human FXR ligand binding assay (LanthaScreen, Thermofisher Cat # PV4833). […] Binding of FXR ligands to the FXR ligand binding domain promotes binding of the fluorescein-labelled SRC2-2 peptide. This causes a FRET signal between the terbium-labelled anti-GST antibody and the fluorescein-labelled SRC peptide which are both bound to the FXR ligand binding domain.
Test compounds are dissolved in DMSO and a 3-fold serial dilution series is generated, then further diluted into assay buffer. The compounds are mixed with 5 nM GST-tagged FXR ligand binding domain, 5 nM Tb-labelled anti-GST antibody and 500 nM fluorescein-labelled SRC2-2 peptide in a pH7.4 buffer. The reaction is incubated at room temperature for 1 hour, then the FRET signal is measured as the ratio of the 520 nm/495 nm emission following excitation at 340 nm. The change in FRET signal is plotted against the test article concentration and fit to a 3-parameter logistical equation. The concentration required to produce 50% activation is expressed as pEC50 (−log EC50), and the extent of activation is expressed relative to GW4064 as % activation.

Chain of human Farnesoid X receptor ligand-binding domain/Gal4 DNA binding domain chimera (Q96RI1 262-486, stated change not applied): as the sequence (Q96RI1 262-486) above
Chain of human Farnesoid X receptor ligand-binding domain/Gal4 DNA binding domain chimera (P04386 1-147 partner): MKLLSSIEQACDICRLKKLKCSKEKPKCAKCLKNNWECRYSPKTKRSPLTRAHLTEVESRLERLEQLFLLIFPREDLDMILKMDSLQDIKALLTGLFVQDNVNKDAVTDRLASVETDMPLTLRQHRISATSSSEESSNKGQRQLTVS

Row | Structure (SMILES) | Emax ([1]; HEK-293T, extent of activation relative to GW4064, read-out: % Efficacy) [%] | EC50 ([1]; FXR-UAS-bla HEK 293T cells, 16 h, pEC50 = -log EC50) [µM] | pEC50 [2] | Emax [2] [%]
1 | O=C(O)[C@@H]1CCc2cc(N3C[C@@H]4C[C@H]3C[C@H]4OCc3c(-c4c(Cl)cccc4Cl)noc3C3CC3)ccc2C1 (single isomer, unassigned) [Compound I-137] | 106 | 0.01 | 8 | 132
2 | O=C(NS(=O)(=O)C1CC1)c1ncc(N2C(=O)[C@@H]3C[C@H]2C[C@H]3OCc2c(-c3c(Cl)cccc3Cl)noc2C2CC2)cc1F [Compound I-355, 5-((1S,4R,5R)-5-((5-cyclopropyl-3-(2,6-dichlorophenyl)isoxazol-4-yl)methoxy)-3-oxo-2-azabicyclo[2.2.1]heptan-2-yl)-N-(cyclopropylsulfonyl)-3-fluoropicolinamide] |  |  | 7.9 | 157
3 | O=C(NS(=O)(=O)C1CCCC1)c1ncc(N2C(=O)[C@@H]3C[C@H]2C[C@H]3OCc2c(-c3c(Cl)cccc3Cl)noc2C2CC2)cc1F [Compound I-356, N-(cyclopentylsulfonyl)-5-((1S,4R,5R)-5-((5-cyclopropyl-3-(2,6-dichlorophenyl)isoxazol-4-yl)methoxy)-3-oxo-2-azabicyclo[2.2.1]heptan-2-yl)-3-fluoropicolinamide] |  |  | 8.6 | 168
4 | CC1(C)CC(S(=O)(=O)NC(=O)c2ncc(N3C(=O)[C@@H]4C[C@H]3C[C@H]4OCc3c(-c4c(Cl)cccc4Cl)noc3C3CC3)cc2F)CCO1 (stereo partly drawn) [Compound I-357, 5-((1S,4R,5R)-5-((5-cyclopropyl-3-(2,6-dichlorophenyl)isoxazol-4-yl)methoxy)-3-oxo-2-azabicyclo[2.2.1]heptan-2-yl)-N-((2,2-dimethyltetrahydro-2H-pyran-4-yl)sulfonyl)-3-fluoropicolinamide] |  |  | 8.4 | 166
5 | C[C@H]1[C@H]2C[C@H](C[C@@H]2OCc2c(-c3c(Cl)cccc3Cl)noc2C2CC2)N1c1ccc(C(=O)O)cc1 [Compound I-361, 4-[(1R,3S,4R,5S)-5-[[5-cyclopropyl-3-(2,6-dichlorophenyl)-1,2-oxazol-4-yl]methoxy]-3-methyl-2-azabicyclo[2.2.1]heptan-2-yl]benzoic acid] |  |  | 6 | 52
6 | C[C@@H]1[C@@H]2C[C@@H](C[C@H]2OCc2c(-c3c(Cl)cccc3Cl)noc2C2CC2)N1c1ccc(C(=O)O)c(F)c1 [Compound I-362, 4-[(1S,3R,4S,5R)-5-[[5-cyclopropyl-3-(2,6-dichlorophenyl)-1,2-oxazol-4-yl]methoxy]-3-methyl-2-azabicyclo[2.2.1]heptan-2-yl]-2-fluorobenzoic acid] |  |  | 7.2 | 72
7 | C[C@@H]1[C@@H]2C[C@@H](C[C@H]2OCc2c(-c3c(Cl)cccc3Cl)noc2C2CC2)N1c1ccc(C(=O)O)cc1F [Compound I-363, 4-[(1S,3R,4S,5R)-5-[[5-cyclopropyl-3-(2,6-dichlorophenyl)-1,2-oxazol-4-yl]methoxy]-3-methyl-2-azabicyclo[2.2.1]heptan-2-yl]-3-fluorobenzoic acid] |  |  | 7.1 | 61
8 | C[C@H]1[C@H]2C[C@H](C[C@@H]2OCc2c(-c3c(Cl)cccc3Cl)noc2C2CC2)N1c1ccc(C(=O)O)cc1F [Compound I-364, 4-[(1R,3S,4R,5S)-5-{[5-cyclopropyl-3-(2,6-dichlorophenyl)-1,2-oxazol-4-yl]methoxy}-3-methyl-2-azabicyclo[2.2.1]heptan-2-yl]-3-fluorobenzoic Acid] |  |  | 6.3 | 47
9 | CC[C@@H]1[C@@H]2C[C@@H](C[C@H]2OCc2c(-c3c(Cl)cccc3Cl)noc2C2CC2)N1c1ccc(C(=O)O)cc1 [Compound I-365, 4-[(1S,3R,4S,5R)-5-[[5-cyclopropyl-3-(2,6-dichlorophenyl)-1,2-oxazol-4-yl]methoxy]-3-ethyl-2-azabicyclo[2.2.1]heptan-2-yl]benzoic acid] |  |  | 6.4 | 67
10 | CC[C@H]1[C@H]2C[C@H](C[C@@H]2OCc2c(-c3c(Cl)cccc3Cl)noc2C2CC2)N1c1ccc(C(=O)O)cc1 [Compound I-366, 4-[(1R,3S,4R,5S)-5-[[5-cyclopropyl-3-(2,6-dichlorophenyl)-1,2-oxazol-4-yl]methoxy]-3-ethyl-2-azabicyclo[2.2.1]heptan-2-yl]benzoic acid] |  |  | 6.2 | 56
11 | C[C@@H]1[C@@H]2C[C@@H](C[C@H]2OCc2c(-c3c(Cl)cccc3Cl)noc2C2CC2)N1c1ccc(C(=O)O)nc1 [Compound I-367, 5-[(1S,3R,4S,5R)-5-[[5-cyclopropyl-3-(2,6-dichlorophenyl)-1,2-oxazol-4-yl]methoxy]-3-methyl-2-azabicyclo[2.2.1]heptan-2-yl]pyridine-2-carboxylic Acid] |  |  | 6.4 | 61
12 | C[C@H]1[C@H]2C[C@H](C[C@@H]2OCc2c(-c3c(Cl)cccc3Cl)noc2C2CC2)N1c1ccc(C(=O)O)nc1 [Compound I-368, 5-[(1R,3S,4R,5S)-5-[[5-cyclopropyl-3-(2,6-dichlorophenyl)-1,2-oxazol-4-yl]methoxy]-3-methyl-2-azabicyclo[2.2.1]heptan-2-yl]pyridine-2-carboxylic acid] |  |  | 5.8 | 22
13 | C[C@@H]1[C@@H]2C[C@@H](C[C@H]2OCc2c(-c3c(Cl)cccc3Cl)noc2C2CC2)N1c1ccc(C(=O)O)cn1 [Compound I-369, 6-[(1S,3R,4S,5R)-5-[[5-cyclopropyl-3-(2,6-dichlorophenyl)-1,2-oxazol-4-yl]methoxy]-3-methyl-2-azabicyclo[2.2.1]heptan-2-yl]pyridine-3-carboxylic acid] |  |  | 6.8 | 50
14 | C[C@H]1[C@H]2C[C@H](C[C@@H]2OCc2c(-c3c(Cl)cccc3Cl)noc2C2CC2)N1c1ccc(C(=O)O)cn1 [Compound I-370, 6-[(1R,3S,4R,5S)-5-[[5-cyclopropyl-3-(2,6-dichlorophenyl)-1,2-oxazol-4-yl]methoxy]-3-methyl-2-azabicyclo[2.2.1]heptan-2-yl]pyridine-3-carboxylic acid] |  |  | 4.5 | 79
15 | C[C@@H]1[C@@H]2C[C@@H](C[C@H]2OCc2c(-c3c(Cl)cccc3Cl)noc2C2CC2)N1c1ccc(C(=O)NS(=O)(=O)C2CCOCC2)nc1 [Compound I-371, 5-[(1S,3R,4S,5R)-5-[[5-cyclopropyl-3-(2,6-dichlorophenyl)-1,2-oxazol-4-yl]methoxy]-3-methyl-2-azabicyclo[2.2.1]heptan-2-yl]-N-(oxane-4-sulfonyl)pyridine-2-carboxamide] |  |  | 6.7 | 57
16 | C[C@H]1[C@H]2C[C@H](C[C@@H]2OCc2c(-c3c(Cl)cccc3Cl)noc2C2CC2)N1c1ccc(C(=O)NS(=O)(=O)C2CCOCC2)nc1 [Compound I-372, 5-[(1R,3S,4R,5S)-5-[[5-cyclopropyl-3-(2,6-dichlorophenyl)-1,2-oxazol-4-yl]methoxy]-3-methyl-2-azabicyclo[2.2.1]heptan-2-yl]-N-(oxane-4-sulfonyl)pyridine-2-carboxamide] |  |  | 6.1 | 22
17 | C[C@@H]1[C@@H]2C[C@@H](C[C@H]2OCc2c(-c3c(Cl)cccc3Cl)noc2C2CC2)N1c1ccc(C(=O)NS(=O)(=O)C2CCOCC2)cn1 [Compound I-373, 6-[(1S,3R,4S,5R)-5-[[5-cyclopropyl-3-(2,6-dichlorophenyl)-1,2-oxazol-4-yl]methoxy]-3-methyl-2-azabicyclo[2.2.1]heptan-2-yl]-N-(oxane-4-sulfonyl)pyridine-3-carboxamide] |  |  | 7.2 | 62
18 | C[C@H]1[C@H]2C[C@H](C[C@@H]2OCc2c(-c3c(Cl)cccc3Cl)noc2C2CC2)N1c1ccc(C(=O)NS(=O)(=O)C2CCOCC2)cn1 [Compound I-374, 6-[(1R,3S,4R,5S)-5-[[5-cyclopropyl-3-(2,6-dichlorophenyl)-1,2-oxazol-4-yl]methoxy]-3-methyl-2-azabicyclo[2.2.1]heptan-2-yl]-N-(oxane-4-sulfonyl)pyridine-3-carboxamide] |  |  | 6 | 48
